Laboratory results as given in patent US20100152219A1, “PYRAZOLE DERIVATIVES AS INHIBITORS OF RECEPTOR TYROSINE KINASES” (ASTRAZENECA R&D, priority 2003, published 2010).

The molecules below were run against T1, human TrkB kinase (Homo sapiens, UniProt Q16620) (assay: TrkB Assay Format (HTRF kinase assay)). Settings: Trk inhibitory activity in the in-vitro TrkB HTRF assay.
T1 construct: The intracellular domain of a HIS-tagged human TrkB kinase; His tag; made in house; host or cells: Sf9 insect cells
T1 sequence (Q16620 455-822 limits assumed): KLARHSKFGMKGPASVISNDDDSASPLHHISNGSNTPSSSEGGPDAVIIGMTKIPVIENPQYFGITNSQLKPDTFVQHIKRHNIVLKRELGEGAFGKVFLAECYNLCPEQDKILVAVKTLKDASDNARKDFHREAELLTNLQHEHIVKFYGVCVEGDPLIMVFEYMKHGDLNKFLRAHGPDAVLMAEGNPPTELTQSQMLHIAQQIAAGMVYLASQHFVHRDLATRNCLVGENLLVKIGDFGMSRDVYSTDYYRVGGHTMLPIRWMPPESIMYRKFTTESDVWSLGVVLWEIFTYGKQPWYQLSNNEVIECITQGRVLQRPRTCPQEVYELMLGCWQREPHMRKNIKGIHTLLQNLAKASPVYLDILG
Format: biochemical
Experimental: TrkB kinase activity is being measured against its ability to phosphorylate synthetic tyrosine residues within a generic polypeptide substrate using homogenous time-resolved fluorescence (HTRF) technology. The intracellular domain of a HIS-tagged human TrkB kinase was expressed in SF9 cells and purified using standard nickel column chromatography. After the kinase is incubated with a biotinylated substrate and adenosine triphosphate (ATP) for 50 minutes at room temperature, the kinase reaction is stopped by the addition of 60 mM ethylenediaminetetraacetic acid (EDTA). The reaction is performed in 384 well microtitre plates and reaction products are detected with the addition of strepavidin-linked and phosphotyrosine-specific antibodies using the Tecan Ultra Evolution Microplate Fluometer after an additional 3-hour incubation at room temperature.

**Q.** With C[C@H](Nc1nccc(Nc2cc(C3CC3)n[nH]2)n1)c1ccc(F)cc1 [Example 42, N^4-(3-Cyclopropyl-1H-pyrazol-5-yl)-N^2-[(1S)-1-(4-fluorophenyl)ethyl]pyrimidine-2,4-diamine] as the molecule, how does the IC50 read?
**A.** 67 nM

**Q.** COc1ccc2nc(N[C@@H](CO)c3ccc(F)cc3)nc(Nc3cc(C4CC4)[nH]n3)c2c1 [Example 80, (2R)-2-({4-[(5-Cyclopropyl-1H-pyrazol-3-yl)amino]-6-methoxyquinazolin-2-yl}amino)-2-(4-fluorophenyl)ethanol] was tested. Which IC50 did it give?
**A.** 87 nM

**Q.** OCC[C@H](Nc1nc(Nc2cc(C3CC3)[nH]n2)c2sccc2n1)c1ccc(F)cc1 [Example 64, (3S)-3-({4-[(5-Cyclopropyl-1H-pyrazol-3-yl)amino]thieno[3,2-d]pyrimidin-2-yl}amino)-3-(4-fluorophenyl)propan-1-ol] was tested. Which IC50 did it give?
**A.** 59 nM
